Results reported in patent US8969373B2, “HCV protease inhibitors” (Shanghai Tangrun Pharmaceuticals Co., Ltd., priority 2011, dated 2015).

How the values were obtained:
[1] = tested on: HCV (J399EM virus) in Huh7.5.1 cells; assay: Inhibition of HCV replication in HCV infected human hepatocellular carcinoma cells (Huh7.5.1), HCV-EGFP fluorescence; format: cell-based; settings: Hepatitis C virus, Huh-7.5.1, 72 h, read-out: HCV infected human hepatocellular carcinoma cells in vitro EC50(nM)
Description: In Vitro Inhibitory Activity of Compounds in HCV Replication in HCV Infected Human Hepatocellular Carcinoma Cells (Huh7.5.1)
The preparation of Huh7.5.1cells: Huh 7.5.1 cells were seeded at a 96-well plate with 37 and 5% CO2 for 24 hours incubation.
Virus infection: Using the J399EM virus supernatants (moi≈0.1) to infect Huh7.5.1cells. At the same time, the no virus infected cell will be set up as the control. After 8 hours virus infection, the virus will be washed out with PBS.
Drug treatment: The different doses of samples (i.e. the compound Ik, wherein k=1, 2, 3, . . . 42) were added in J399EM infected Huh7.5.1 cells, the each dose for duplicate. At the same time the no sample added in wells will be set up as the control. The test dose of sample is starting from 25 nM or 400 nM, with quarter dilution, 5 doses of sample will be added in the test wells, respectively, then continued for 72 hours incubation.
HCV-EGFP fluorescence detection: After samples treatment for 72 hours, the autofluorescence of HCV-EGFP were measured by the luminometer with excitation of 488 nm, and emission of 516 nm. The related fluorescence unit (RFU) of samples will be read out and used for calculating the inhibitory rates of compounds in HCV replication.

[2] = tested on: HCV replicon (pSGR-399LM) in Huh7 cells; assay: Inhibitory activity in the HCV replicon system (Renilla luciferase); format: cell-based; settings: Hepatitis C virus, Huh-7, pSGR-399LM replicon Huh7 cells, 72 hr
Description: The Inhibitory Activity of Compounds in the HCV Replicon System
HCV replicon cell-line: The Huh7 cells were transfected with pSGR-399LM replicon DNA and cultured in the DMEM containing 10% FBS and 0.5 mg/mL G418. The cells were split at 1:3 to 1:5 every 3-4 days. The transfected cells were seeded in 96-well plates and cultured at 37° C., 5% CO2 for 24 hr.
Treatment with samples: To the HCV replicon Huh7 cells-line were added different concentration of the samples (i.e. compound Ik, wherein k=1, 2, 3 . . . 42), the each concentration for duplicate, and set no sample control wells. The concentration started at 400 nM, with quarter dilution to form five different concentrations of samples, that is 400 nM, 100 nM, 25 nM, 6.25 nM and 1.56 nM. The samples were added separately, and continued to incubated for 72 hr.
Fluorescence detection: After 72 hr treatment with sample, the cells were lysed and added with Renilla luciferase substrate to detect luminescent signal. The relative luminescent unit (RLU) in the luminometer was read out and used to calculate the inhibition rate of HCV.

Row | Structure (SMILES) | EC50 [1] | EC50 [2]
1 | C=C[C@@H]1C[C@]1(NC(=O)[C@@H]1C[C@@H](Oc2cc(-c3ccccc3)nc3c2sc2cccc(Cl)c23)CN1C(=O)[C@@H](NC(=O)OC(C)(C)C)C(C)(C)C)C(=O)NS(=O)(=O)C1CC1 [Compound 1] | 100 to 1000 nM | 100 to 1000 nM
2 | C=C[C@@H]1C[C@]1(NC(=O)[C@@H]1C[C@@H](Oc2cc(-c3ccccc3)nc3c2oc2ccc(OC)cc23)CN1C(=O)[C@@H](NC(=O)OC(C)(C)C)C(C)(C)C)C(=O)NS(=O)(=O)C1CC1 [Compound 3, tert-butyl(S)-1-((2S,4R)-2-((1R,2S)-1-(cyclopropylsulfonylcarbamoyl)-2-vinylcyclopropylcarbamoyl)-4-(8-methoxy-2-phenylbenzofuro [3,2-b]pyridin-4-yloxy)pyrrolidin-1-yl)-3,3-dimethyl-1-oxobutan-2-yl carbamate] | 100 to 1000 nM | < 100 nM
3 | C=C[C@@H]1C[C@]1(NC(=O)[C@@H]1C[C@@H](Oc2cc(-c3ccccc3)nc3c2oc2ccc(Cl)cc23)CN1C(=O)[C@@H](NC(=O)OC(C)(C)C)C(C)(C)C)C(=O)NS(=O)(=O)C1CC1 [Compound 4, tert-butyl(S)-1-((2S,4R)-4-(8-chloro-2-phenylbenzofuro[3,2-b]pyridin-4-yloxy)-2-((1R,2S)-1-(cyclopropylsulfonylcarbamoyl)-2-vinylcyclopropylcarbamoyl)pyrrolidin-1-yl)-3,3-dimethyl-1-oxobutan-2-yl carbamate] | 100 to 1000 nM | < 100 nM
4 | CC(C)(C)OC(=O)N[C@H]1CCCCC/C=C\[C@@H]2C[C@@]2(C(=O)NS(=O)(=O)C2CC2)NC(=O)[C@@H]2C[C@@H](Oc3nc4c5ccccc5oc4c4ccccc34)CN2C1=O [Compound 6] | < 100 nM | < 100 nM
5 | C=C[C@@H]1C[C@]1(NC(=O)[C@@H]1C[C@@H](Oc2cc(-c3ccccc3)nc3c2sc2cc(F)ccc23)CN1C(=O)[C@@H](NC(=O)OC(C)(C)C)C(C)(C)C)C(=O)NS(=O)(=O)C1CC1 [Compound 7] | < 100 nM | < 100 nM
6 | C=C[C@@H]1C[C@]1(NC(=O)[C@@H]1C[C@@H](Oc2cc(-c3ccccc3)nc3c2oc2ccc(Br)cc23)CN1C(=O)[C@@H](NC(=O)OC(C)(C)C)C(C)(C)C)C(=O)NS(=O)(=O)C1CC1 [Compound 8] | 100 to 1000 nM | < 100 nM
7 | C=C[C@@H]1C[C@]1(NC(=O)[C@@H]1C[C@@H](Oc2cc(-c3ccccc3)nc3c2sc2ccccc23)CN1C(=O)[C@@H](NC(=O)OC(C)(C)C)C(C)(C)C)C(=O)NS(=O)(=O)C1CC1 [Compound 9] | 100 to 1000 nM | < 100 nM
8 | CC(C)(C)OC(=O)N[C@H]1CCCCC/C=C\[C@@H]2C[C@@]2(C(=O)NS(=O)(=O)C2CC2)NC(=O)[C@@H]2C[C@@H](Oc3nc4c5ccc(F)cc5sc4c4ccccc34)CN2C1=O [Compound 10] | < 100 nM | < 100 nM
9 | C=C[C@@H]1C[C@]1(NC(=O)[C@@H]1C[C@@H](Oc2nc3c4cc(Cl)ccc4oc3c3ccccc23)CN1C(=O)[C@@H](NC(=O)OC(C)(C)C)C(C)(C)C)C(=O)NS(=O)(=O)C1CC1 [Compound 11] | 100 to 1000 nM | < 100 nM
10 | C=C[C@@H]1C[C@]1(NC(=O)[C@@H]1C[C@@H](Oc2nc3c4ccc(F)cc4sc3c3ccccc23)CN1C(=O)[C@@H](NC(=O)OC(C)(C)C)C(C)(C)C)C(=O)NS(=O)(=O)C1CC1 [Compound 12] | 100 to 1000 nM | < 100 nM
11 | C=C[C@@H]1C[C@]1(NC(=O)[C@@H]1C[C@@H](Oc2nc3c4cc(Cl)ccc4oc3c3ccccc23)CN1C(=O)[C@@H](CC(=O)OC(C)(C)C)C(C)(C)C)C(=O)NS(=O)(=O)C1CC1 [Compound 13] | 100 to 1000 nM | 100 to 1000 nM
12 | C=C[C@@H]1C[C@]1(NC(=O)[C@@H]1C[C@@H](Oc2nc3c4cc(Cl)ccc4oc3c3ccccc23)CN1C(=O)[C@@H](CC(=O)N1CCCCC1)C(C)(C)C)C(=O)NS(=O)(=O)C1CC1 [Compound 14, (2S,4R)-1-((S)-2-tert-butyl-4-oxo-4-(piperidin-1-yl)butanoyl)-4-(8-chlorobenzofuro[3,2-c]isoquinolin-5-yloxy)-N-((1R,2S)-1-(cyclopropylsulfonylcarbamoyl)-2-vinylcyclopropyl)pyrrolidine-2-carboxamide] | 100 to 1000 nM | < 100 nM
13 | C=C[C@@H]1C[C@]1(NC(=O)[C@@H]1C[C@@H](Oc2nc3c4cc(OC)ccc4oc3c3ccccc23)CN1C(=O)[C@@H](NC(=O)OC(C)(C)C)C(C)(C)C)C(=O)NS(=O)(=O)C1CC1 [Compound 15] | 100 to 1000 nM | 100 to 1000 nM
14 | CC(C)(C)OC(=O)N[C@H]1CCCCC/C=C\[C@@H]2C[C@@]2(C(=O)NS(=O)(=O)C2CC2)NC(=O)[C@@H]2C[C@@H](Oc3nc4c5ccccc5oc4c4ccc(Br)cc34)CN2C1=O [Compound 16] | < 100 nM | < 100 nM
15 | CC(C)(C)OC(=O)N[C@H]1CCCCC/C=C\[C@@H]2C[C@@]2(C(=O)NS(=O)(=O)C2CC2)NC(=O)[C@@H]2C[C@@H](Oc3nc4c5ccccc5oc4c4ccc(Cl)cc34)CN2C1=O [Compound 17] | < 100 nM | < 100 nM
16 | COc1ccc2oc3c4ccc(Cl)cc4c(O[C@@H]4C[C@H]5C(=O)N[C@]6(C(=O)NS(=O)(=O)C7CC7)C[C@H]6/C=C\CCCCC[C@H](NC(=O)OC(C)(C)C)C(=O)N5C4)nc3c2c1 [Compound 19] | < 100 nM | < 100 nM
17 | C=C[C@@H]1C[C@]1(NC(=O)[C@@H]1C[C@@H](Oc2nc3c4ccccc4oc3c3ccc(Cl)cc23)CN1C(=O)[C@@H](NC(=O)OC1CCCC1)C(C)(C)C)C(=O)NS(=O)(=O)C1CC1 [Compound 20] | < 100 nM | < 100 nM
18 | C=C[C@@H]1C[C@]1(NC(=O)[C@@H]1C[C@@H](Oc2cc(-c3ccccc3)nc3c2oc2ccc(OC)cc23)CN1C(=O)[C@@H](NC(=O)OC1CCCC1)C(C)(C)C)C(=O)NS(=O)(=O)C1CC1 [Compound 21] | 100 to 1000 nM | < 100 nM
19 | C=C[C@@H]1C[C@]1(NC(=O)[C@@H]1C[C@@H](Oc2cc(-c3ccccc3)nc3c2oc2ccc(OC)c(Cl)c23)CN1C(=O)[C@@H](NC(=O)OC1CCCC1)C(C)(C)C)C(=O)NS(=O)(=O)C1CC1 [Compound 22] | < 100 nM | < 100 nM
20 | C=C[C@@H]1C[C@]1(NC(=O)[C@@H]1C[C@@H](Oc2cc(-c3ccccc3)nc3c2oc2ccc(OC)c(Cl)c23)CN1C(=O)[C@@H](NC(=O)OC(C)(C)C)C(C)(C)C)C(=O)NS(=O)(=O)C1CC1 [Compound 23] | < 100 nM | < 100 nM
21 | C=C[C@@H]1C[C@]1(NC(=O)[C@@H]1C[C@@H](Oc2cc(-c3csc(C(C)C)n3)nc3c2oc2ccc(OC)c(Cl)c23)CN1C(=O)[C@@H](NC(=O)OC(C)(C)C)C(C)(C)C)C(=O)NS(=O)(=O)C1CC1 [Compound 24] | < 100 nM | < 100 nM
22 | C=C[C@@H]1C[C@]1(NC(=O)[C@@H]1C[C@@H](Oc2cc(-c3csc(C(C)(C)O)n3)nc3c2oc2ccc(OC)c(Cl)c23)CN1C(=O)[C@@H](NC(=O)OC(C)(C)C)C(C)(C)C)C(=O)NS(=O)(=O)C1CC1 [Compound 25] | < 100 nM | < 100 nM
23 | C=C[C@@H]1C[C@]1(NC(=O)[C@@H]1C[C@@H](Oc2cc(-c3csc(C(C)(C)O)n3)nc3c2oc2ccc(OC)c(Br)c23)CN1C(=O)[C@@H](NC(=O)OC(C)(C)C)C(C)(C)C)C(=O)NS(=O)(=O)C1CC1 [Compound 26] | < 100 nM | < 100 nM
24 | C=C[C@@H]1C[C@]1(NC(=O)[C@@H]1C[C@@H](Oc2cc(-c3ccccc3)nc3c2oc2ccc(OC)c(Br)c23)CN1C(=O)[C@@H](NC(=O)OC(C)(C)C)C(C)(C)C)C(=O)NS(=O)(=O)C1CC1 [Compound 27] | < 100 nM | < 100 nM
25 | C=C[C@@H]1C[C@]1(NC(=O)[C@@H]1C[C@@H](Oc2cc(-c3ccccc3)nc3c2oc2ccc(OC)c(Br)c23)CN1C(=O)[C@@H](NC(=O)OC1CCCC1)C(C)(C)C)C(=O)NS(=O)(=O)C1CC1 [Compound 28] | < 100 nM | < 100 nM
26 | C=C[C@@H]1C[C@]1(NC(=O)[C@@H]1C[C@@H](Oc2nc3c4ccccc4oc3c3ccc(Cl)cc23)CN1C(=O)[C@@H](NC(=O)OC(C)(C)C)C(C)(C)C)C(=O)NS(=O)(=O)C1CC1 [Compound 29] | < 100 nM | < 100 nM
27 | C=C[C@@H]1C[C@]1(NC(=O)[C@@H]1C[C@@H](Oc2nc3c4ccccc4oc3c3ccc(Br)cc23)CN1C(=O)[C@@H](NC(=O)OC(C)(C)C)C(C)(C)C)C(=O)NS(=O)(=O)C1CC1 [Compound 30] | 100 to 1000 nM | 100 to 1000 nM
28 | C=C[C@@H]1C[C@]1(NC(=O)[C@@H]1C[C@@H](Oc2nc3c4ccccc4oc3c3ccc(OC)cc23)CN1C(=O)[C@@H](NC(=O)OC(C)(C)C)C(C)(C)C)C(=O)NS(=O)(=O)C1CC1 [Compound 31] | 100 to 1000 nM | 100 to 1000 nM
